Paper PMC10541411 (Nature Communications, 2023)

Experiments:
[1] = target: T1, 53BP1^TT-PN (E1549P/D1550N) (Homo sapiens, UniProt Q12888, D1550N/E1549P); assay: 1H-15N HSQC NMR titration of 15N-labeled 53BP1TT-PN; type: binding; conditions: up to fourfold molar excess
T1 construct: The tandem Tudor domain of 53BP1 (53BP1^TT, residues 1481–1603) was purified as previously described; made in house
Protocol: (§1) All NMR data were collected at 25 °C on a 700 MHz Bruker Avance III spectrometer equipped with a cryoprobe. Data were processed and analyzed with NMRPipe[54] and NMRViewJ[55],[56].
(§2) To probe chemical shift perturbations, ^1H-^15N HSQC spectra were acquired on the following samples: 0.2 mM ^15N-labeled 53BP1^TT WT and 53BP1^TT-PN in 25 mM sodium phosphate, pH 7.0, 1.5 mM NaN3, 0.3 mM DSS, 90% H2O/10% D2O, free and incrementally titrated with various non-labeled inhibitors (UNC1078, UNC1118, UNC2170, UNC2991, UNC3474), as well as with H4KC20me2 and p53K382me2 peptides. Chemical shift perturbations (Δδ) were calculated using the Eq. (1):1 Δδ=(ΔN/5)^2+ΔH^2 where ΔN and ΔH are the corresponding differences in ^15N and ^1H chemical shifts between the bound and free forms of 53BP1.

[2] = target: T2, 53BP1^TT-CC (E1549C/E1567C) (Homo sapiens, UniProt Q12888, E1549C/E1567C); assay: 1H-15N HSQC NMR of 15N-labeled 53BP1TT-CC with UNC3474, with and without DTT; type: binding
T2 construct: The tandem Tudor domain of 53BP1 (53BP1^TT, residues 1481–1603) was purified as previously described; made in house
T2 sequence (Q12888 1481-1603 E1549C/E1567C): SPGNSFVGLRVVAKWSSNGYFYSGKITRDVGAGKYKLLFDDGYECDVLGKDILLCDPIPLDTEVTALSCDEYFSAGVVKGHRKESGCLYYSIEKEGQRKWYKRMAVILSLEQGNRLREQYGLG
Protocol: Fig. 4 Engineering of a disulfide-crosslinked 53BP1^TT homodimer that binds UNC3474. a Sedimentation velocity analysis of 53BP1^TT-CC (20 μM) in the presence and absence of 10 mM DTT. b Crystal structure of 53BP1^TT-CC (blue and orange) showing the two disulfide bridges overlaid to the crystal structure of 53BP1^TT-UNC3474 (UNC3474 omitted) in gray. c Effects of adding 2 mM DTT and UNC3474 on the ^1H-^15N HSQC spectrum of ^15N-labeled 53BP1^TT-CC (1:1 UNC3474:53BP1^TT-CC molar ratio).
as §1

[3] = system: 53BP1^FFR-PN IRIF in U2OS cells; assay: 53BP1FFR ionizing radiation-induced foci (IRIF) formation, immunofluorescence, PN mutant; type: cell-based, Homo Sapiens; conditions: 1 Gy X-ray, different concentrations of UNC3474
Description: (§3) The foci-forming region (FFR; residues 1220–1711) of wild-type 53BP1 and mutants E1549P/D1550N (53BP1^FFR-PN) and E1549C/E1567C (53BP1^FFR-CC) were inserted into the retroviral vector POZ. The primers used to introduce the E1549P/D1550N mutations are: […] (forward) and […] (reverse). The primers used to introduce the E1549C/E1567C mutations are: […] (forward) and […] (reverse). The 53BP1^FFR constructs were stably expressed at a moderate level in U2OS cells. To probe the effect of UNC3474 on 53BP1^FFR IRIF formation, U2OS cells were grown on glass coverslips, pre-incubated for 1 h with various concentrations of UNC3474 and exposed to 1 Gy of X-ray radiation. After 1 h, the cells were fixed in 4% formaldehyde in PBS for 15 min at room temperature and blocked and permeabilized for 1 h in PBS containing 0.3% Triton X-100, 1% BSA, 10% fetal bovine serum. […]
(§4) Cell samples were subjected to z-stack scanning with a total depth of 5 μm to comprehensively capture all 53BP1^FFR and γH2A.X IRIF within the cell nuclei, which were fluorescently labeled with DAPI. […] To assess the quantification of 53BP1^FFR and γH2A.X foci per nuclei, a customized CellProfiler (version 3.0)[68] pipeline was employed. […]

[4] = target: 53BP1^TT WT (Homo sapiens, UniProt Q12888); assay: 1H-15N HSQC NMR titration of 15N-labeled wild-type 53BP1TT; type: binding; set-up: The tandem Tudor domain of 53BP1 (53BP1^TT, residues 1481–1603) was purified as previously described; made in house; host or cells: E. coli (only for the SAXS sample); conditions: 15N-labeled WT 53BP1TT
53BP1^TT WT, sequence (Q12888 1481-1603): as the sequence (Q12888 1481-1603 E1549C/E1567C) above, with C69E, C87E counted along it
Protocol: as §1, §2

[5] = system: 53BP1^FFR-CC IRIF in U2OS cells; assay: 53BP1FFR ionizing radiation-induced foci (IRIF) formation, immunofluorescence, CC mutant; type: cell-based, Homo Sapiens; conditions: 1 Gy X-ray, different concentrations of UNC3474
Description: as §3, §4

T1 sequence (Q12888 1481-1603 E1549P/D1550N): as the sequence (Q12888 1481-1603 E1549C/E1567C) above, with C69P, D70N, C87E counted along it

interaction with 53BP1TT-PN (1H-15N HSQC titration) [1]: did not interact | affinity of reduced monomeric 53BP1TT-CC ([2]; with DTT (2 mM)): no affinity | effect on 1H-15N HSQC spectra of 53BP1TT-CC (disulfide-crosslinked dimer) ([2]; without DTT, 1:1 UNC3474:53BP1TT-CC molar ratio): splitting of several NMR signals
Compound: CC(C)c1cccc(C(=O)NCCCNC(C)(C)C)c1 [UNC3474]
53BP1FFR-PN IRIF [3]: no significant change | changes in signal positions in the 1H-15N HSQC spectrum of 53BP1TT upon titration [4]: slow exchange on the chemical shift time scale | 53BP1FFR-CC IRIF [5]: no significant change
